Laboratory results as given in US6835371B1 (priority 1997, dated 2004).
Where “and” joins values, the source holds several entries; their conditions need not be identical. Equal values may be shown once. Read-outs that look alike come from different tables or passages of the source.

Assays:
[1] = target: T1, human dopamine transporter (hDAT) (Homo sapiens, UniProt Q01959); experiment: biochemical; format: binding
[2] = target: T2, human norepinephrine transporter (hNET) (Homo sapiens, UniProt P23975); experiment: biochemical; format: binding
T2 sequence (P23975 whole entry): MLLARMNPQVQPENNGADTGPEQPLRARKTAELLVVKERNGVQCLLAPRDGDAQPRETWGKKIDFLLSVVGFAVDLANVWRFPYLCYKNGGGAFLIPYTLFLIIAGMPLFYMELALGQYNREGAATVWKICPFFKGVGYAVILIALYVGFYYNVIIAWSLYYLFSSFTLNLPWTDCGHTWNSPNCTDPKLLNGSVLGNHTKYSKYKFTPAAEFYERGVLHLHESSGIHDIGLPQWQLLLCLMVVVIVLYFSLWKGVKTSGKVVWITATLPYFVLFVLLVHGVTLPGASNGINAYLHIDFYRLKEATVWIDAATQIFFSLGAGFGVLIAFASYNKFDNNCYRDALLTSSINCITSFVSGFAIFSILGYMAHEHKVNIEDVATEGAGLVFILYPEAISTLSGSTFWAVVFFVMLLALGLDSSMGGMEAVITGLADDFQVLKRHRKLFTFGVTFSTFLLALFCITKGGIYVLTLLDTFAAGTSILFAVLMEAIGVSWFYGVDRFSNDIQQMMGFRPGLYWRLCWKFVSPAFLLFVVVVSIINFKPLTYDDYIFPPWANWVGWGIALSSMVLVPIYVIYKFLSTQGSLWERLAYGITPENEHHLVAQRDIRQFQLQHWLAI

[3] = target: T1, human dopamine transporter (hDAT); experiment: cell-based
[4] = target: T2, human norepinephrine transporter (hNET); experiment: cell-based
[5] = tested on: male Swiss-Webster mice; experiment: animal or person; format: in vivo
[6] = tested on: male Swiss-Webster mice; experiment: Cocaine interaction study (locomotor activity); format: in vivo; conditions: 20 mg/kg cocaine IP; for AD50 (dose attenuating cocaine-induced stimulation by 50%): IP, 30-min period; for Doses with significant differences against the cocaine group (p<0.05): planned comparisons on log10 horizontal activity counts

T1 sequence (Q01959 whole entry): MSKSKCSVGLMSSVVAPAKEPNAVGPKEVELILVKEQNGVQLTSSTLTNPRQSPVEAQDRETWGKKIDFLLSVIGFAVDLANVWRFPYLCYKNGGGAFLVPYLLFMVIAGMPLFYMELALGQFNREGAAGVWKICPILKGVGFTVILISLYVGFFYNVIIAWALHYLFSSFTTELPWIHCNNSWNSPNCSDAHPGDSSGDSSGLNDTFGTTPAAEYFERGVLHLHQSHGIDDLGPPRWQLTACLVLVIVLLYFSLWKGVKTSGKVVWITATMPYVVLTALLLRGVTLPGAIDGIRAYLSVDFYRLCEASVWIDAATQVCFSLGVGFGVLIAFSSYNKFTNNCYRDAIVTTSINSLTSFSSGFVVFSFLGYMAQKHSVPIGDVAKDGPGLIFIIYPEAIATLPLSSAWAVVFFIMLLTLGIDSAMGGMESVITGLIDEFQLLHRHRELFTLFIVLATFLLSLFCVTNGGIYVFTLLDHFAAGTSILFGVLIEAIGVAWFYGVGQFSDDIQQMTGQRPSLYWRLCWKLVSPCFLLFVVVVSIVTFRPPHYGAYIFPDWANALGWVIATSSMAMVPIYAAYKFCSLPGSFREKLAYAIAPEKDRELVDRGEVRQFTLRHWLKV

SMILES: OC1(c2ccc(Br)cc2)CCN(CCCCOC(c2ccc(F)cc2)c2ccc(F)cc2)CC1 [Compound 31530]
- Binding discrimination ratio NET/DAT [1]: 64.1
- Binding discrimination ratio SERT/DAT [1]: 9.7
- Hill coefficient [1]: −0.59 ± 0.06
- Ki ([1]; [125I]RTI-55 binding Ki, DAT): 3.9 nM and 10 nM
- Hill coefficient [2]: −0.97 ± 0.30
- Discrimination ratio uptake/binding (DA) [3]: 110.5
- IC50 ([3]; HEK-hDAT cells, read-out: [3H]Dopamine Uptake IC50): 431 nM
- Ki ([3]; Table 2, read-out: Reuptake [3H]DA (Ki ± SD)): 431 ± 88 nM
- IC50 ([4]; HEK-hNET cells, read-out: [3H]NE Uptake IC50): 1870 nM
- Ki ([4]; Table 2, read-out: Reuptake [3H]NE (Ki ± SD)): 1870 ± 670 nM
- ED50 ([5]; Mus musculus, ip, read-out: ED50 (dose producing ½ maximal stimulant activity)): 2.42 mg/kg
- Maximal effect/cocaine maximal effect ratio (ME/CME) ([5]; mouse, in vivo): 0.38
- Maximum effect, horizontal activity ([5]; mouse, in vivo): 2132.6 counts/10 min
- Dose at estimated maximum effect ([5]; mouse, in vivo, ip): 6.00 mg/kg
- AD50 (dose attenuating cocaine-induced stimulation by 50%) [6]: 15.75 mg/kg
- Doses with significant differences against the cocaine group (p<0.05) [6]: 30 mg/kg

SMILES: Fc1ccc(C(OCCCCN2CCN(c3cccc(C(F)(F)F)c3)CC2)c2ccc(F)cc2)cc1 [Compound 31532]
- Binding discrimination ratio NET/DAT [1]: 6.8
- Binding discrimination ratio SERT/DAT [1]: 6.8
- Hill coefficient [1]: −0.87 ± 0.05
- Ki ([1]; [125I]RTI-55 binding Ki, DAT): 32.5 nM
- Ki ([1]; read-out: [125I]RTI-55 binding Ki, DAT): 32.5 nM
- Hill coefficient [2]: −0.80 ± 0.03
- Ki ([2]; [125I]RTI-55 binding Ki, NET): 222 nM
- Ki ([2]; read-out: [125I]RTI-55 binding Ki, NET): 222 nM
- Discrimination Ratio DAT Binding/Reuptake [3]: 11.7
- Discrimination ratio uptake/binding (DA) [3]: 11.7
- IC50 [3]: 380 nM
- Ki [3]: 380 ± 130 nM
- Ki [4]: 310 ± 100 nM
- IC50 ([4]; [3H]NE Uptake IC50): 310 nM
- IC50 ([4]; read-out: [3H]NE Uptake IC50): 310 nM
- ID50 (dose producing ½ maximal depressant activity) ([5]; IP, 20 min pretreatment, 0-30 min, descending portion 10 to 100 mg/kg): 112.95 mg/kg
- Doses with significant differences against the vehicle group (p<0.05) ([5]; mouse, in vivo, ip): 100 mg/kg
- AD50 (dose attenuating cocaine-induced stimulation by 50%) [6]: 18.35 mg/kg
- Doses with significant differences against the cocaine group (p<0.05) [6]: 100 mg/kg
